Laboratory results reported in PubChem BioAssay AID1963985 (Molecular Pharmacology Branch, DTP, NCI, 2024).

Tested on: 252836-082-R-J2-PDC tumor spheroids, viability
Experiment: Anticancer human tumor 252836-082-R-J2-PDC patient-derived head and neck squamous cell carcinoma cell line growth inhibition [PI3K]
Conditions: spheroids with HUVEC and MSC; for IC50: curve of first compound; for viability, T/C: stronger effect = lower value
Source text: Combinatorial screen of targeted agents with the PI3K inhibitors inavolisib, alpelisib, duvelisib, and copanlisib in multi-cell type tumor spheroids
A high-throughput screen of multi-cell type tumor spheroids was designed to identify active combinations of targeted small molecules and PI3K pathway inhibitors. Complex spheroids include a stromal component modeled by human endothelial cells (HUVEC) and fibroblasts modeled by human mesenchymal stem cells (MSCs). The concentration ranges selected for each drug and investigational agent were based upon clinically achievable concentrations if the clinical Cmax of the agent was known.
Compounds. The drugs and investigational agents: inavolisib (NSC800729), alpelisib (NSC765974), duvelisib (NSC772469), copanlisib (NSC816437), ipatasertib (NSC767898), afuresertib (NSC778305), talazoparib (NSC767125), sapanisertib (NSC764658), selumetinib (NSC741078), tovorafenib (DAY101, NSC766906), vemurafenib (NSC761431), ravoxertinib (NSC781343), sotorasib (NSC818433), MRTX1133 (NSC 836407), abemaciclib (NSC 768073), palbociclib (NSC758247), venetoclax (NSC 766270), SY5609 (NSC837396), enzalutamide (NSC755605), and darolutamide (NSC825331), were obtained from the National Cancer Institute (NCI) Developmental Therapeutics Program Chemical Repository. The FDA-approved anticancer drug set is available from the NCI Developmental Therapeutics Program. […] The stock solutions were prepared in dimethyl sulfoxide (DMSO, Sigma-Aldrich, St. Louis, MO, cat. D2650) at 800-fold the tested concentration and stored at -70 degrees C prior to their use. All drugs and investigational agents were tested over a range starting from a high concentration at or near the clinical Cmax and decreasing in half-log increments. If the clinical Cmax for an agent had not been determined, the highest concentration tested was 10 microM.
Cell Culture. All cells were maintained in an incubator at 37 degrees C and 5% CO2 with 95% humidity. The PDC lines were cultured according to standard operating procedures established by the NCI PDMR (https://pdmr.cancer.gov/sops/default.htm). All PDCs were thawed and cultured in Matrigel-coated flasks prepared with a working solution of 1X Ham's F-12 nutrient mix, without supplementation (Invitrogen, Waltham, MA, cat. 11765054), 100 U/mL penicillin-streptomycin (Invitrogen, cat. 15140122), and 2.5% Matrigel (Corning Inc., Corning, NY, cat. 354248) for the first three passages. The 354836-022-R-J1-PDC, 475296-252-R-J1-PDC, and 997726-040-R-J2-PDC lines were cultured in 6A media, which includes advanced DMEM/F-12 (Thermo Fisher Scientific, cat. 12634028), 10 mM HEPES (Thermo Fisher Scientific, cat. 15630080), 1X GlutaMAX supplement (Thermo Fisher Scientific, cat. 35050061), 0.1 mg/mL primocin (InvivoGen, San Diego, CA, cat. ant-pm-2), 10% defined fetal bovine serum, heat inactivated (HyClone Laboratories Inc., Logan, UT, cat. SH30070.03HI), 50% L-WRN conditioned media (ATCC, cat. CRL-3276), 1.25 mM N-Acetyl-L-cysteine (Sigma-Aldrich, cat. A9165), 10 mM nicotinamide (Sigma-Aldrich, cat. N0636), 1X B-27 supplement (Thermo Fisher Scientific, cat. 17504044), 1X N-2 supplement (Thermo Fisher Scientific, cat. 17502048), and 10 microM Y-27632 dihydrochloride (Tocris Bioscience, Bristol, United Kingdom, cat. 1254). The 624824-186-R-J2-PDC line was cultured in 6C/Colon 1B media, which includes all 6A media components plus 50 ng/mL human EGF recombinant protein (Thermo Fisher Scientific, cat. PHG0311). […]
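Also: spheroids exposed to agents for seven days before readout.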
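For viability, T/C in this document: percent of vehicle DMSO control viability so 100% = untreated growth.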

- IC50 (second compound 0.0316 µM): 391 nM
- IC50 (second compound 0.1 µM): 657 nM
- IC50 (second compound 0.316 µM): 362 nM
- IC50 (second compound 1 µM): 52.2 nM
- IC50 (second compound 3.16 µM): < 31.6 nM
- IC50 (second compound 10 µM): < 31.6 nM
Compound: Cn1ncc(Cl)c1-c1cc(C(=O)NC(CN)Cc2cccc(F)c2)sc1Cl (configuration not stated) + Cc1nc(NC(=O)N2CCCC2C(N)=O)sc1-c1ccnc(C(C)(C)C(F)(F)F)c1
- viability, T/C (second compound 0.0316 µM, first compound 0.0316 µM): 82.8%
- viability, T/C (second compound 0.0316 µM, first compound 0.1 µM): 65%
- viability, T/C (second compound 0.0316 µM, first compound 0.316 µM): 57.8%
- viability, T/C (second compound 0.0316 µM, first compound 1 µM): 33.6%
- viability, T/C (second compound 0.0316 µM, first compound 3.16 µM): 28.4%
- viability, T/C (second compound 0.0316 µM, first compound 10 µM): 17.6%
- viability, T/C (second compound 0.1 µM, first compound 0.0316 µM): 83.9%
- viability, T/C (second compound 0.1 µM, first compound 0.1 µM): 64%
- viability, T/C (second compound 0.1 µM, first compound 0.316 µM): 67.5%
- viability, T/C (second compound 0.1 µM, first compound 1 µM): 41.8%
- viability, T/C (second compound 0.1 µM, first compound 3.16 µM): 27.4%
- viability, T/C (second compound 0.1 µM, first compound 10 µM): 12.2%
- viability, T/C (second compound 0.316 µM, first compound 0.0316 µM): 67.4%
- viability, T/C (second compound 0.316 µM, first compound 0.1 µM): 61.3%
- viability, T/C (second compound 0.316 µM, first compound 0.316 µM): 52.4%
- viability, T/C (second compound 0.316 µM, first compound 1 µM): 36.9%
- viability, T/C (second compound 0.316 µM, first compound 3.16 µM): 29.5%
- viability, T/C (second compound 0.316 µM, first compound 10 µM): 11.1%
- viability, T/C (second compound 1 µM, first compound 0.0316 µM): 52%
- viability, T/C (second compound 1 µM, first compound 0.1 µM): 47.4%
- viability, T/C (second compound 1 µM, first compound 0.316 µM): 44.6%
- viability, T/C (second compound 1 µM, first compound 1 µM): 35.8%
- viability, T/C (second compound 1 µM, first compound 3.16 µM): 28.6%
- viability, T/C (second compound 1 µM, first compound 10 µM): 12%
- viability, T/C (second compound 3.16 µM, first compound 0.0316 µM): 44.5%
- viability, T/C (second compound 3.16 µM, first compound 0.1 µM): 42.1%
- viability, T/C (second compound 3.16 µM, first compound 0.316 µM): 43.6%
- viability, T/C (second compound 3.16 µM, first compound 1 µM): 30.7%
- viability, T/C (second compound 3.16 µM, first compound 3.16 µM): 25.4%
- viability, T/C (second compound 3.16 µM, first compound 10 µM): 9.67%
- viability, T/C (second compound 10 µM, first compound 0.0316 µM): 40.4%
- viability, T/C (second compound 10 µM, first compound 0.1 µM): 36.1%
- viability, T/C (second compound 10 µM, first compound 0.316 µM): 34.1%
- viability, T/C (second compound 10 µM, first compound 1 µM): 26.1%
- viability, T/C (second compound 10 µM, first compound 3.16 µM): 20.9%
- viability, T/C (second compound 10 µM, first compound 10 µM): 7.53%
